Measured values as given in US5656743A, “Oligonucleotide modulation of cell growth” (priority 1994, dated 1997).
“Also recorded” adds a separate entry of the source.

Assays:
[1] = system: HeLa and LOX human tumor cell lines; assay: Nuclear aberrations, mitoses and cell growth in HeLa and LOX cells by light and fluorescence microscopy; type: cell-based; conditions: 0.2 or 0.4 μM + DOTMA 4 h
Description: HeLa and LOX human tumor cell lines were analyzed by light and fluorescence microscopy after 4 hours treatment with 0.2 or 0.4 μM antisense (SEQ ID NO: 9) or sense (SEQ ID NO: 16) oligonucleotide with DOTMA. […] Nucleolar unraveling and fragmentation and chromatin alterations were observed. In some LOX cells chromatin was condensed as in prophase arrest. In HeLa cells, chromatin was condensed and compacted. Decreased mitoses correlated with decreased ^3 H-thymidine incorporation. Cell growth decreased 70-80%.

[2] = system: human LOX ascites tumor; assay: Tumor growth inhibition, i.p. LOX ascites tumor in nude mice; type: in vivo; conditions: complexed with DOTMA
Description: Intraperitoneally (i.p.) transplanted, exponentially growing LOX ascites tumor cells were harvested from nude mice, washed and resuspended in serum-free RPMI medium. A total of 2×10^6 viable cells (determined by trypan blue exclusion) in 0.5 ml RPMI medium were injected i.p. into the homozygous mutant, HSd: Athymic Nude-nu male mice (Sambrook, et al., 1989). Treatment was started 1 day after the i.p. injection of tumor cells and the oligonucleotide in the presence of DOTMA was given i.p. on days 1, 3 and 5. Tumor growth was followed by daily inspection of the animals. The experiments were terminated when the ascite tumors were visible both in controls and treated animals, generally by day 14. All animal experimentation followed the guidelines of the Baylor College of Medicine and New York Academy of Sciences.
The tumor growth inhibitory effect of antisense oligonucleotide SEQ ID NO: 9 was studied on i.p. injected LOX tumor cells. […] No tumor growth inhibition or other toxic effects occurred after treatment with PBS alone or DOTMA in PBS (1-10 mg/kg bodyweight).

[3] = system: HRCC-SN12A1 cells (human renal cell carcinoma); assay: Cell growth of HRCC-SN12A1 cells by counting attached cells after oligonucleotide treatment; type: cell-based
Description: HeLa S3 (ATCC CCL 2.2, human epithelioid cervix carcinoma) cells were subcultured in Dulbecco's modified Eagle Medium (D-MEM) (GIBCO BRL), supplemented with 10% fetal bovine serum (FBS) (GIBCO BRL) and 1% penicillin-streptomycin liquid (100 000 IU/ml penicillin G sodium, 10 mg/ml streptomycin sulfate in 0.85% saline) (GIBCO BRL). LOX (IMVI, human amelanotic melanoma) cells (provided by Dr. D. J. Dykes, Southern Research Institute, Birmingham, Ala.) were subcultured in RPMI 1640 medium (RPMI) (GIBCO BRL) supplemented with 10% FBS and 1% penicillin-streptomycin liquid. […] All cells were negative for mycoplasma infection as determined by a DNA stain (McGarrity, Methods in Enzymology: Cell Culture, Vol 63, p23 (Academic Press, San Diego; 1979); Freshney, Culture of Animal Cells: A Manual of Basic Techniques (Wiley-Liss, NY; 1987). […]
The effect of oligonucleotides on cell growth was determined by counting the attached cells in the 6-well plates through a phase contrast inverted microscope (Nikon Diaphot, 10×objective, 10×ocular, 4×magnification extender, total magnification: 400×). The attached cells on 10 randomly chosen fields were counted (10-200 cells/field) and the total cell number was calculated by multiplying the mean cell number by the correction factor (f6-well =6028, f24-well =1258, f10 cm dish =35,670). […]

[4] = system: LOX cells (human amelanotic melanoma); assay: Cell growth of LOX cells by counting attached cells after oligonucleotide treatment; type: cell-based
Description: HeLa S3 (ATCC CCL 2.2, human epithelioid cervix carcinoma) cells were subcultured in Dulbecco's modified Eagle Medium (D-MEM) (GIBCO BRL), supplemented with 10% fetal bovine serum (FBS) (GIBCO BRL) and 1% penicillin-streptomycin liquid (100 000 IU/ml penicillin G sodium, 10 mg/ml streptomycin sulfate in 0.85% saline) (GIBCO BRL). LOX (IMVI, human amelanotic melanoma) cells (provided by Dr. D. J. Dykes, Southern Research Institute, Birmingham, Ala.) were subcultured in RPMI 1640 medium (RPMI) (GIBCO BRL) supplemented with 10% FBS and 1% penicillin-streptomycin liquid. HRCC-SN12A1 (human renal cell carcinoma) cells (established from the ascitic cells of intrarenally transplanted HRCC-bearing nude mouse and provided by Dr. I. J. Fidler, M.D., Anderson Cancer Center, Houston, Tex.)(Naito, etal., 1986) were subcultured in Eagle minimum essential medium (MEM) (GIBCO BRL), supplemented with 10% FBS, vitamins, L-glutamine, sodium pyruvate, non-essential amino acids and 1% penicillin-streptomycin liquid. All cells were negative for mycoplasma infection as determined by a DNA stain (McGarrity, Methods in Enzymology: Cell Culture, Vol 63, p23 (Academic Press, San Diego; 1979); Freshney, Culture of Animal Cells: A Manual of Basic Techniques (Wiley-Liss, NY; 1987).
Twenty-four hours after plating (1×10^5 cells into 6-well cell culture dishes), the cells growing in monolayer were gently washed once with 5 ml serum-free D-MEM, RPMI and MEM medium for HeLa S3, LOX and HRCC-SN12A1 cells, respectively. Freshly prepared serum-free mediumcontaining 10 μg/ml cationic lipid (DOTMA); Chiang, et al., J. Biol. Chem., 266:18162 (1991); Bennett, et al., J. Liposome Research, in press (1992); were mixed with oligonucleotide and preincubated at 37° C. in a humidified incubator for 15 minutes to allow formation of an oligonucleotide-cationic lipid complex. The oligonucleotide concentrations were between 0.001 and 10 μM, but for the majority of the experiments for HeLa S3 cells 0.1 μM, for LOX cells 0.03-0.05-0.1 μM, and for HRCC cells 0.1 μM concentrations were used. […]
The effect of oligonucleotides on cell growth was determined by counting the attached cells in the 6-well plates through a phase contrast inverted microscope (Nikon Diaphot, 10×objective, 10×ocular, 4×magnification extender, total magnification: 400×). The attached cells on 10 randomly chosen fields were counted (10-200 cells/field) and the total cell number was calculated by multiplying the mean cell number by the correction factor (f6-well =6028, f24-well =1258, f10 cm dish =35,670). […] The dead floating cells (viability was determined by […]) were not counted. The cell number in each well was determined before treatment, immediately after treatment, and daily after treatment for 5-7 days. […]

[5] = type: in vitro ADME; conditions: after 24 hours in 10% serum-containing medium
Description: (§1) Phosphorothioate oligonucleotide SEQ ID NO: 9 was labeled with [γ^32 P]ATP by T4 polynucleotide kinass to analyze cellular uptake, efflux and stability in the presence or absence of DOTMA. […] 5-15 fold more of oligonucleotide SEQ ID NO: 9 was associated with the cells in the presence of DOTMA than in its absence. 60% of the oligonucleotide localized to the nuclei after 4 hours treatment in the presence of DOTMA, approximately 50% remained in the cells 20 hours post-treatment. The stability of phosphorothioate oligonucleotides was much greater than the phosphodiester oligonucleotides. Only 40% degradation of the phosphorothioate oligonucleotide was found after 24 hours in 10% serum-containing medium. More than 50% of the phosphodiester oligonucleotide was degraded within 1 hour. DOTMA enhanced the activity of antisense oligonucleotide phosphorothioate.

[6] = system: human tumor cells (HeLa, LOX, SN12A1); type: cell-based; conditions: 0.1 and 1 μM oligonucleotide + 10 μg/ml DOTMA 4 h; for inhibition of the tumors (in words): FIG. 2 panels A-C
[7] = system: HeLa S3 cells (human epithelioid cervix carcinoma); assay: Cell growth of HeLa cells by counting attached cells after oligonucleotide treatment; type: cell-based; conditions: for cell growth inhibitory effect: HeLa cells (FIG. 1A), 0.1-0.5 μM oligonucleotide + 10 μg/ml DOTMA, ±SD; for cell growth inhibitory effect / inhibition of cell growth (in words): serum-free, 4 h; for log HeLa cell kill: 2 days after treatment, oligonucleotide complexed with DOTMA 4 h; for inhibition of cell growth (in words): oligonucleotide + 10 μg/ml DOTMA
[8] = Cellular uptake, efflux and localization of 32P-labeled oligonucleotide; type: in vitro ADME
Description: as §1

[9] = two days after treatment, DOTMA 4 h serum-free
[10] = 32P-labeled phosphorothioate oligonucleotide

## CACCCGCCTT GGCCTCCCAC (antisense CACCCGCCTTGGCCTCCCAC; chemistry not given here) [SEQ ID NO: 9, p120 antisense oligonucleotide, 3' UTR]
[1]
  decrease of cell growth: 70-80%
[1]; at 8 to 72 hours post-treatment
  decrease of mitotic cells: 70%
[1]; at 4 hours
  decrease of mitotic cells: 50%
[2]; 0.65 mg/kg bodyweight i.p. days 1, 3, 5
  inhibition of cell growth in vivo: 80%
[2]; 6.5 mg/kg bodyweight i.p. days 1, 3, 5
  inhibition of cell growth in vivo: 90%
[2]; i.p. days 1, 3, 5
  IC50, tumor growth inhibition in vivo: 0.26 mg/kg bodyweight
[3]; 4 days after treatment
  maximum cytocidal effect (log cell kill): 1.3 log
[3]; [9]
  log cell kill: 0.7 log
[4]; 0.05 μM + DOTMA, one 4 h treatment day 1 after seeding
  log cell kill, single treatment: 1.4 log
[4]; 0.05 μM + DOTMA, two 4 h treatments on days 1 and 3
  effect of repeated treatment: killed most LOX cells and no recovery was found on day 8
[4]; oligonucleotide + DOTMA 4 h serum-free, two days after treatment (FIG. 4), read-out: IC50, inhibition of cell growth
  IC50: 10 nM
[4]; [9]
  log cell kill: 1.2 log
[5]
  degradation: 40%
[6]
  inhibition of the tumors (in words): marked inhibition
[6]; especially 3-4 days after treatment
  log-cell kill: 0.5 to 1.5 log
[7]
  cell growth inhibitory effect: 87.6±11.3%
[7]; HeLa cells, 0.1 μM + DOTMA, two 4 h treatments on days 1 and 3
  effect of repeated treatment: additive effects
[7]; HeLa cells
  log HeLa cell kill: 0.7 log
  inhibition of cell growth (in words): most consistent and greatest inhibition of cell growth; also recorded: inhibitory activity
[7]; HeLa cells, DOTMA-mediated treatment in complete (10% FBS) medium, compared to serum-free (FIG. 1C)
  inhibition of cell growth in complete medium: very slight
[7]; HeLa cells, oligonucleotide + DOTMA 4 h serum-free, two days after treatment (FIG. 4), read-out: IC50, inhibition of cell growth
  IC50: 20 nM
[8]; [10]
  oligonucleotide associated with the cells, presence versus absence of DOTMA: 5-15 fold
  time of treatment to plateau of cellular uptake: 1 h
[8]; 20 hours post-treatment
  oligonucleotide remaining in the cells: approximately 50%
[8]; after 4 hours treatment in the presence of DOTMA
  oligonucleotide localized to the nuclei: 60%

## CACCCGCCTT GGCCTCCCAG (antisense CACCCGCCTTGGCCTCCCAG; chemistry not given here) [SEQ ID NO: 14, p120 antisense oligonucleotide, 3' UTR]
[6]
  inhibition of the tumors (in words): marked inhibition
[7]; HeLa cells
  inhibition of cell growth (in words): inhibitory activity

## CACGCCTCCC GACTCTGCCC (DNA CACGCCTCCCGACTCTGCCC; chemistry not given here) [SEQ ID NO: 15, reference compound]
[7]; HeLa cells
  log HeLa cell kill: 0.2 log

## GTGGGAGGCC AAGGCGGGTG (sense GTGGGAGGCCAAGGCGGGTG; chemistry not given here) [SEQ ID NO: 16, reference compound]
[7]; HeLa cells
  inhibition of cell growth (in words): No inhibitory effect

## TCCCAGTCCC ACCTCCCATC (antisense TCCCAGTCCCACCTCCCATC; chemistry not given here) [SEQ ID NO: 6, p120 antisense oligonucleotide, 3' UTR]
[7]
  cell growth inhibitory effect: 70.7±24.8%
